Measured values published in publication PMC9134006 (RSC Advances, 2021).

How the values were obtained:
[1] = target: hAChE (human AChE) (Homo sapiens, UniProt P22303); assay: Inhibition of hAChE; format: biochemical; settings: for remaining activity at 10 µM: read-out: hAChE RA (residual activity) at 10 μM; for remaining activity at 100 µM: read-out: hAChE RA (residual activity) at 100 μM
[2] = target: hBChE (human BChE) (Homo sapiens, UniProt P06276); assay: Inhibition of hBChE; format: biochemical; settings: for remaining activity at 10 µM: read-out: hBChE RA (residual activity) at 10 μM; for remaining activity at 100 µM: read-out: hBChE RA (residual activity) at 100 μM
[3] = target: T1, hMAO-B (human MAO-B) (Homo sapiens, UniProt P27338); assay: Inhibition of hMAO-B; format: biochemical; settings: for remaining activity at 10 µM: read-out: hMAO-B RA (residual activity) at 10 μM; for remaining activity at 100 µM: read-out: hMAO-B RA (residual activity) at 100 μM; for inhibition of hMAO-B (in words): versus hAChE, hBChE, hMAO-A
T1 sequence (P27338 1-520): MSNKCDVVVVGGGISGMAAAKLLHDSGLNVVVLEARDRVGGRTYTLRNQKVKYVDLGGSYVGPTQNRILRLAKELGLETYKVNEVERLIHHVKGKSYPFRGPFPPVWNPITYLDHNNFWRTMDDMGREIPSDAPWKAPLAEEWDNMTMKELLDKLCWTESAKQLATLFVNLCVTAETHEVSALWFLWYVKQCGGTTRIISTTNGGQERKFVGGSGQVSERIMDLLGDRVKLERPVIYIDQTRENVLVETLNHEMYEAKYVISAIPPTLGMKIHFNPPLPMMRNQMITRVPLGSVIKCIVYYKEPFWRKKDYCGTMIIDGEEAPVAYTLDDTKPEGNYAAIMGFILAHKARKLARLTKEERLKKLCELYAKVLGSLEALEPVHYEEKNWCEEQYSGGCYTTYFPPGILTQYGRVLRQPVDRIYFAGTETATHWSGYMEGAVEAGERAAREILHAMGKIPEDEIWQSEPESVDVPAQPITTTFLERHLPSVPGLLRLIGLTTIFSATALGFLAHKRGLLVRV

[4] = target: T2, hMAO-A (human MAO-A) (Homo sapiens, UniProt P21397); assay: Inhibition of hMAO-A; settings: for remaining activity at 10 µM: read-out: hMAO-A RA (residual activity) at 10 μM; for remaining activity at 100 µM: read-out: hMAO-A RA (residual activity) at 100 μM
T2 sequence (P21397 1-527): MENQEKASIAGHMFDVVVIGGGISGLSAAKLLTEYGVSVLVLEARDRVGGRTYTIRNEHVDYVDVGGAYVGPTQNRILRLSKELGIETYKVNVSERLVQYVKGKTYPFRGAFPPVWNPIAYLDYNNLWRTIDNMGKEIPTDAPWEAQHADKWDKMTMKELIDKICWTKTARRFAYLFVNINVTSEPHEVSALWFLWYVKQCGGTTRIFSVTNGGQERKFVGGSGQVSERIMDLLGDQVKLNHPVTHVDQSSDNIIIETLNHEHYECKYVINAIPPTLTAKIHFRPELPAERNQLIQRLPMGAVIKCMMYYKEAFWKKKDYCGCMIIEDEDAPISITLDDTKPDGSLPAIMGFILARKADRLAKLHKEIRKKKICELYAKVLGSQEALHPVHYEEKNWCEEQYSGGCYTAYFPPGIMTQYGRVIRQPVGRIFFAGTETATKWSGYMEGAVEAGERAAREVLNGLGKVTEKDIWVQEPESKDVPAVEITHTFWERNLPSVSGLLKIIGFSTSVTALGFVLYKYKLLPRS

[5] = ref 29b,37; cited from earlier work

Chain of hAChE (human AChE) (P22303 32-614): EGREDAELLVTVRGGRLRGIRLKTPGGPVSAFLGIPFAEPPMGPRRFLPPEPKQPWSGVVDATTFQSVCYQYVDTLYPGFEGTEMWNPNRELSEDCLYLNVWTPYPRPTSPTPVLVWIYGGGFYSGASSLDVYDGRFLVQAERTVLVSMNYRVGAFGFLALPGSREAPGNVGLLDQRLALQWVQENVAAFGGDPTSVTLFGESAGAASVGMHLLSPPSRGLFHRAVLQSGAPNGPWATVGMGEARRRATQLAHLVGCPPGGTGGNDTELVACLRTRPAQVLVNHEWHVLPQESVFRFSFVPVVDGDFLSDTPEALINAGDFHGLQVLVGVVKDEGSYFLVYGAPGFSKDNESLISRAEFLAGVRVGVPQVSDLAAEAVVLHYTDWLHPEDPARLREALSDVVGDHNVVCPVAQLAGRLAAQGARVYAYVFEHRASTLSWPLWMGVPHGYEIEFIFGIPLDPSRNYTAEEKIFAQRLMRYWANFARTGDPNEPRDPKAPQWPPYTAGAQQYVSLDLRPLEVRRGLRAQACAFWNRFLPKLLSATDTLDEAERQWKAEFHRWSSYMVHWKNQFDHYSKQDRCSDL
Chain of hBChE (human BChE) (P06276 29-602): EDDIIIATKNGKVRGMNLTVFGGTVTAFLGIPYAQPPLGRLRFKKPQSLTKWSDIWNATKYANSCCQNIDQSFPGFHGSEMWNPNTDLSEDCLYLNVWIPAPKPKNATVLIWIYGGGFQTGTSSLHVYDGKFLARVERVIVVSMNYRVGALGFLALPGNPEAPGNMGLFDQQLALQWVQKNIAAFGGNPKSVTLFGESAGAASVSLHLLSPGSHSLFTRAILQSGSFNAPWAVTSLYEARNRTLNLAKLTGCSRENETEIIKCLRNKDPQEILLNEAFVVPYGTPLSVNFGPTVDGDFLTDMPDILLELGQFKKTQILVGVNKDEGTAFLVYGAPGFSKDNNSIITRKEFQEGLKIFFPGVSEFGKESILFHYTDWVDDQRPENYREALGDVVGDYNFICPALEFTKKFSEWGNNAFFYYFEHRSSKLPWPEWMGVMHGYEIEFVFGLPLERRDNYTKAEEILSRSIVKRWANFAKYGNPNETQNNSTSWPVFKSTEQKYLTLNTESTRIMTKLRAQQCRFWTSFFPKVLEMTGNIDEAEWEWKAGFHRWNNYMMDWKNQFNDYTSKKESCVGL

Structure (SMILES) | remaining activity at 10 µM [1] | remaining activity at 100 µM [1] | remaining activity at 10 µM [2] | remaining activity at 100 µM [2] | IC50 [3] | remaining activity at 10 µM [3] | remaining activity at 100 µM [3] | inhibition of hMAO-B (in words) [3] | remaining activity at 10 µM [4] | remaining activity at 100 µM [4] | anti-inflammatory activity [5]
COc1ccc(-c2cnn3c(C(F)(F)F)cc(=O)[nH]c23)cc1 [Compound 5a, 3-(4-Methoxyphenyl)-7-(trifluoromethyl)pyrazolo[1,5-a]pyrimidin-5(4H)-one] | 93% | 86% | 90% | 103% | 35 µM | 73% | 26% | selectively inhibit hMAO-B in the micromolar range | 95% | 99% | –
COc1cccc(-c2cnn3c(C(F)(F)F)cc(=O)[nH]c23)c1 [Compound 5f, 3-(3-Methoxyphenyl)-7-(trifluoromethyl)pyrazolo[1,5-a]pyrimidin-5(4H)-one] | 91% | 88% | 97% | 95% | 101 µM | 80% | 40% | selectively inhibit hMAO-B in the micromolar range | 92% | 97% | –
O=c1cc(C(F)(F)F)n2ncc(-c3ccc4c(c3)OCCO4)c2[nH]1 [Compound 5h, 3-(2,3-Dihydrobenzo[b][1,4]dioxin-6-yl)-7-(trifluoromethyl)pyrazolo[1,5-a]pyrimidin-5(4H)-one] | 91% | 86% | 94% | 95% | 5.36 µM | 36% | 8% | selectively inhibit hMAO-B in the micromolar range | 110% | 95% | –
CC(=O)c1ccc(-c2cnn3c(C(F)(F)F)cc(=O)[nH]c23)cc1 [Compound 5i, 3-(4-Acetylphenyl)-7-(trifluoromethyl)pyrazolo[1,5-a]pyrimidin-5(4H)-one] | 90% | 91% | 91% | 99% | 26.2 µM | 75% | 21% | selectively inhibit hMAO-B in the micromolar range | 100% | 98% | –
FC(F)(F)c1cc(-c2ccc(Br)cc2)nc2c(-c3ccccc3)cnn12 [Compound 11h, 5-(4-Bromophenyl)-3-phenyl-7-(trifluoromethyl)pyrazolo[1,5-a]pyrimidine] | – | – | – | – | – | – | – | – | – | – | 83.4%
COc1ccc2c(c1)c(CC(=O)O)c(C)n2C(=O)c1ccc(Cl)cc1 [Indomethacin, reference compound] | – | – | – | – | – | – | – | – | – | – | 84.2%
